# In patent US20220112187A1, “PYRAZOLOPYRIDINE AMINE COMPOUNDS FOR THE TREATMENT OF AUTOIMMUNE DISEASE” (Hoffmann-La Roche Inc., priority 2018, published 2022):
# Molecular target: T1, human TLR7 (Homo sapiens, UniProt Q9NYK1)
# T1 sequence (Q9NYK1 27-1049): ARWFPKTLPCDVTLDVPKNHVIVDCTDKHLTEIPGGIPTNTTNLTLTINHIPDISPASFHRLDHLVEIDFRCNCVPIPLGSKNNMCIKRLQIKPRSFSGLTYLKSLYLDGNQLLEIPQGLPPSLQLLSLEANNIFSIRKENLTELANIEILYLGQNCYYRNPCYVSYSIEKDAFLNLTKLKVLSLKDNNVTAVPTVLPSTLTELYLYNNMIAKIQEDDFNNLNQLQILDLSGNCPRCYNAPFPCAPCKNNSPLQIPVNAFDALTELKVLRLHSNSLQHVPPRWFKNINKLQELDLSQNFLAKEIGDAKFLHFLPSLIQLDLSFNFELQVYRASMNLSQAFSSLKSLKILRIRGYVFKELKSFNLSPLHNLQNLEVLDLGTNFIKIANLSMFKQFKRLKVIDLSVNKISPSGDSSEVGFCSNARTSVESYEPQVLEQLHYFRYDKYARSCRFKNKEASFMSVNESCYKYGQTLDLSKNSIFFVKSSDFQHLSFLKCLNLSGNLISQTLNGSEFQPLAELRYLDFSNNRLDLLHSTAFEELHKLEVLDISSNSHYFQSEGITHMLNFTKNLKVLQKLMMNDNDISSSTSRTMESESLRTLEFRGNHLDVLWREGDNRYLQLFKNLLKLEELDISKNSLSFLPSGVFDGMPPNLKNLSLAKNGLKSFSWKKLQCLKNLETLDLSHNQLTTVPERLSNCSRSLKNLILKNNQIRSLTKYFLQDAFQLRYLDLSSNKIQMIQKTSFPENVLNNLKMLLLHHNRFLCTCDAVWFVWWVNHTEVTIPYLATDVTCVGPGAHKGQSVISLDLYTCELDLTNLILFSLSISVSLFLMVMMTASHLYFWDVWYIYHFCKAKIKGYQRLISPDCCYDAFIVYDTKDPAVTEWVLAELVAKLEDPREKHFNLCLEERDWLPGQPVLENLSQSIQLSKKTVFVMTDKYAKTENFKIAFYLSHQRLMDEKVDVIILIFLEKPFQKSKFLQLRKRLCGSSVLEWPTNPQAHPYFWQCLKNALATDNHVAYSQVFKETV
# Experiment: HEK293-Blue-hTLR-7 cells assay (SEAP reporter, R848 stimulation)
# Type: cell-based
# Settings: HEK293-Blue-hTLR7 cells, R848 ligand, 20 hrs incubation
# Text: A stable HEK293-Blue-hTLR-7 cell line was purchased from InvivoGen (Cat. #: hkb-htlr7, San Diego, Calif., USA). These cells were originally designed for studying the stimulation of human TLR7 by monitoring the activation of NF-κB. A SEAP (secreted embryonic alkaline phosphatase) reporter gene was placed under the control of the IFN-β minimal promoter fused to five NF-κB and AP-1-binding sites. The SEAP was induced by activating NF-κB and AP-1 via stimulating HEK-Blue hTLR7 cells with TLR7 ligands. Therefore the reporter expression was declined by TLR7 antagonist under the stimulation of a ligand, such as R848 (Resiquimod), for incubation of 20 hrs. The cell culture supernatant SEAP reporter activity was determined using QUANTI-Blue™ kit (Cat. #: rep-qb1, Invivogen, San Diego, Ca, USA) at a wavelength of 640 nm, a detection medium that turns purple or blue in the presence of alkaline phosphatase.
# HEK293-Blue-hTLR7 cells were incubated at a density of 250,000˜450,000 cells/mL in a volume of 170 μL in a 96-well plate in Dulbecco's Modified Eagle's medium (DMEM) containing 4.5 g/L glucose, 50 U/mL penicillin, […], […], 2 mM L-glutamine, 10% (v/v) heat-inactivated fetal bovine serum with addition of 20 μL test compound in a serial dilution in the presence of final DMSO at 1% and 10 μL of 20 uM R848 in above DMEM, perform incubation under 37° C. in a CO2 incubator for 20 hrs. Then 20 μL of the supernatant from each well was incubated with 180 μL Quanti-blue substrate solution at 37° C. for 2 hrs and the absorbance was read at 620˜655 nm using a spectrophotometer. The signalling pathway that TLR7 activation leads to downstream NF-κB activation has been widely accepted, and therefore similar reporter assay was modified for evaluating TLR7 antagonist.
row,Compound,IC50
1,"C[C@@H]1CN(c2ccc(C#N)n3nccc23)C[C@H](CN2CCC3(CCCNC3)CC2)O1 [Example 27, 4-[(2S,6R)-2-(2,9-diazaspiro[5.5]undecan-9-ylmethyl)-6-methyl-morpholin-4-yl]pyrazolo[1,5-a]pyridine-7-carbonitrile]",130 nM
2,"CC1CN(C[C@H]2CN(c3ccc(C#N)n4nccc34)C[C@@H](C)O2)CCN1 (stereo partly drawn) [Example 28, 4-[(2R,6S)-2-methyl-6-[(3-methylpiperazin-1-yl)methyl]morpholin-4-yl]pyrazolo[1,5-a]pyridine-7-carbonitrile]",44 nM
3,"C[C@@H]1CN(c2ccc(C#N)n3nccc23)C[C@H](CN2CCC(C)(N)CC2)O1 [Example 29, 4-[(2S,6R)-2-[(4-amino-4-methyl-1-piperidyl)methyl]-6-methyl-morpholin-4-yl]pyrazolo[1,5-a]pyridine-7-carbonitrile]",76 nM
4,"C[C@@H]1CN(c2ccc(C#N)n3nccc23)C[C@H](CN2CC3CCC2CN3)O1 (stereo partly drawn) [Example 30, 4-[(2S,6R)-2-(2,5-diazabicyclo[2.2.2]octan-2-ylmethyl)-6-methyl-morpholin-4-yl]pyrazolo[1,5-a]pyridine-7-carbonitrile]",46 nM
5,"C[C@@H]1CN(c2ccc(C#N)n3nccc23)C[C@H](CN2CC3CCC(C2)N3)O1 [Example 31, 4-[(2S,6R)-2-(3,8-diazabicyclo[3.2.1]octan-3-ylmethyl)-6-methyl-morpholin-4-yl]pyrazolo[1,5-a]pyridine-7-carbonitrile]",53 nM
6,"C[C@@H]1CN(c2ccc(C#N)n3nccc23)C[C@H](CN2CCCC3(CCNCC3)C2)O1 [Example 32, 4-[(2S,6R)-2-(2,9-diazaspiro[5.5]undecan-2-ylmethyl)-6-methyl-morpholin-4-yl]pyrazolo[1,5-a]pyridine-7-carbonitrile]",410 nM
7,"C[C@@H]1CN(c2ccc(C#N)n3nccc23)C[C@H](CN2CCCC3(CNC3)C2)O1 [Example 33, 4-[(2S,6R)-2-(2,6-diazaspiro[3.5]nonan-6-ylmethyl)-6-methyl-morpholin-4-yl]pyrazolo[1,5-a]pyridine-7-carbonitrile]",460 nM
8,"C[C@@H]1CN(c2ccc(C#N)n3nccc23)C[C@H](CN2CCC(N)C(F)(F)C2)O1 (stereo partly drawn) [Example 34, 4-[(2S,6R)-2-[(4-amino-3,3-difluoro-1-piperidyl)methyl]-6-methyl-morpholin-4-yl]pyrazolo[1,5-a]pyridine-7-carbonitrile]",87 nM
9,"C[C@@H]1CN(c2ccc(C#N)n3nccc23)C[C@H](CN2CC(N)C(F)(F)C2)O1 (stereo partly drawn) [Example 35, 4-[(2S,6R)-2-[(4-amino-3,3-difluoro-pyrrolidin-1-yl)methyl]-6-methyl-morpholin-4-yl]pyrazolo[1,5-a]pyridine-7-carbonitrile]",830 nM
10,"C[C@@H]1CN(c2ccc(C#N)n3nccc23)C[C@H](CN2CC3CCC(C2)C3N)O1 (stereo partly drawn) [Example 36, 4-[(2S,6R)-2-[(8-amino-3-azabicyclo[3.2.1]octan-3-yl)methyl]-6-methyl-morpholin-4-yl]pyrazolo[1,5-a]pyridine-7-carbonitrile]",38 nM
11,"C[C@@H]1CN(c2ccc(C#N)n3nccc23)C[C@H](CN2C3CCC2CC(N)C3)O1 (stereo partly drawn) [Example 37, 4-[(2S,6R)-2-[(3-amino-8-azabicyclo[3.2.1]octan-8-yl)methyl]-6-methyl-morpholin-4-yl]pyrazolo[1,5-a]pyridine-7-carbonitrile]",190 nM
12,"C[C@@H]1CN(c2ccc(C#N)n3nccc23)C[C@H](CN2CCN[C@H](c3ccccc3)C2)O1 [Example 38, 4-[(2R,6S)-2-methyl-6-[[(3R)-3-phenylpiperazin-1-yl]methyl]morpholin-4-yl]pyrazolo[1,5-a]pyridine-7-carbonitrile]",120 nM
13,"C[C@@H]1CN(c2ccc(C#N)n3nccc23)C[C@H](CN2CCC(N3CCNCC3)CC2)O1 [Example 39, 4-[(2R,6S)-2-methyl-6-[(4-piperazin-1-yl-1-piperidyl)methyl]morpholin-4-yl]pyrazolo[1,5-a]pyridine-7-carbonitrile]",200 nM
14,"C[C@@H]1CN(c2ccc(C#N)n3nccc23)C[C@H](CN2CCNC3(CC3)C2)O1 [Example 40, 4-[(2S,6R)-2-(4,7-diazaspiro[2.5]octan-7-ylmethyl)-6-methyl-morpholin-4-yl]pyrazolo[1,5-a]pyridine-7-carbonitrile]",95 nM
15,"C[C@@H]1CN(c2ccc(C#N)n3nccc23)C[C@H](CN2CCC3NCCC3C2)O1 (stereo partly drawn) [Example 41, 4-[(2S,6R)-2-(1,2,3,3a,4,6,7,7a-octahydropyrrolo[3,2-c]pyridin-5-ylmethyl)-6-methyl-morpholin-4-yl]pyrazolo[1,5-a]pyridine-7-carbonitrile]",78 nM
16,"C[C@@H]1CN(c2ccc(C#N)n3nccc23)C[C@H](CN2CCC3(CCCCN3)C2)O1 (stereo partly drawn) [Example 42, 4-[(2S,6R)-2-(2,6-diazaspiro[4.5]decan-2-ylmethyl)-6-methyl-morpholin-4-yl]pyrazolo[1,5-a]pyridine-7-carbonitrile]",98 nM
17,"C[C@@H]1CN(c2ccc(C#N)n3nccc23)C[C@H](CN2C3CCC2CNC3)O1 [Example 43, 4-[(2S,6R)-2-(3,8-diazabicyclo[3.2.1]octan-8-ylmethyl)-6-methyl-morpholin-4-yl]pyrazolo[1,5-a]pyridine-7-carbonitrile]",59 nM
18,"C[C@@H]1CN(c2ccc(C#N)n3nccc23)C[C@H](CN2CCCC3(CCNC3)C2)O1 (stereo partly drawn) [Example 44, 4-[(2S,6R)-2-(2,7-diazaspiro[4.5]decan-7-ylmethyl)-6-methyl-morpholin-4-yl]pyrazolo[1,5-a]pyridine-7-carbonitrile]",240 nM
19,"C[C@@H]1CN(c2ccc(C#N)n3nccc23)C[C@H](CN2CC3CCCNC3C2)O1 (stereo partly drawn) [Example 45, 4-[(2S,6R)-2-(1,2,3,4,4a,5,7,7a-octahydropyrrolo[3,4-b]pyridin-6-ylmethyl)-6-methyl-morpholin-4-yl]pyrazolo[1,5-a]pyridine-7-carbonitrile]",250 nM
20,"C[C@@H]1CN(c2ccc(C#N)n3nccc23)C[C@H](CN2CC3(CCCNCC3)C2)O1 [Example 46, 4-[(2S,6R)-2-(2,8-diazaspiro[3.6]decan-2-ylmethyl)-6-methyl-morpholin-4-yl]pyrazolo[1,5-a]pyridine-7-carbonitrile]",600 nM
21,"C[C@@H]1CN(c2ccc(C#N)n3nccc23)C[C@H](CN2CCC3(CCCCN3)CC2)O1 [Example 47, 4-[(2S,6R)-2-(1,9-diazaspiro[5.5]undecan-9-ylmethyl)-6-methyl-morpholin-4-yl]pyrazolo[1,5-a]pyridine-7-carbonitrile]",180 nM
22,"C[C@@H]1CN(c2ccc(C#N)n3nccc23)C[C@H](CN2CCC3(CCN3)CC2)O1 [Example 48, 4-[(2S,6R)-2-(1,7-diazaspiro[3.5]nonan-7-ylmethyl)-6-methyl-morpholin-4-yl]pyrazolo[1,5-a]pyridine-7-carbonitrile]",300 nM
23,"C[C@@H]1CN(c2ccc(C#N)n3nccc23)C[C@H](CN2CC3CCNCC3C2)O1 (stereo partly drawn) [Example 49, 4-[(2S,6R)-2-(1,3,3a,4,5,6,7,7a-octahydropyrrolo[3,4-c]pyridin-2-ylmethyl)-6-methyl-morpholin-4-yl]pyrazolo[1,5-a]pyridine-7-carbonitrile]",180 nM
24,"CC1CC(N)CCN1C[C@H]1CN(c2ccc(C#N)n3nccc23)C[C@@H](C)O1 (stereo partly drawn) [Example 51, 4-[(2S,6R)-2-[(4-amino-2-methyl-1-piperidyl)methyl]-6-methyl-morpholin-4-yl]pyrazolo[1,5-a]pyridine-7-carbonitrile]",390 nM
